The text below walks through data of the supplement of paper PMC11208160.
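Further: IS621 bridge recombinase in Escherichia coli cells against a fixed T5 target plasmid.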

The nature of this data set: recombinant UMI read abundance after kanamycin selection (control-corrected) (log10(CPM+1)); higher = more efficient recombination; extreme values may be limits of the assay; sequences stand for … in AGTGCAGAGAAAATCGGCCAGTTTTCTCTGCCTGCAGTCCGCATGCCGTGGGACCCCTTGGGTTCTAACCTGTTGCCTAGATTTATGCAGCGGACTGCCTTTCTCCCAAAGTGATAAACCGG…AGGTTGGTTTCACT; site = the 11-nt donor. How it is done:
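Pooled E. coli donor-specificity screen for the IS621 bridge recombinase. Each library member carries a reprogrammed 11-nt donor and a full-length LE bridge RNA expressed in cis from the natural promoter, with a paired donor-binding loop (8-nt LDG + 4-nt RDG) and a target-binding loop fixed to T5. It is co-electroporated with a T5 target plasmid; recombinase is induced with 0.07 mM IPTG and recombinants are selected on kanamycin. UMIs are counted as CPM, averaged over two biological replicates and corrected by the unselected control. Molecule = full bridge RNA written as DNA, built from the T5 scaffold: LDG = donor specificity nt 1-8, RDG = reverse complement of nt 8-11.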
In the case of “ACACTATCATGGACCGGTTTTCCCGGTAATCCGTATTTGTA (site ACAGTATCTTG)”, the “recombinant UMI read abundance (log10)” value was determined as 0.

With “ACACTTACATGGACCGGTTTTCCCGGTAATCCGTATTTGTT (site ACACTTACTAA)”, the “recombinant UMI read abundance (log10)” value worked out at 0.147.

With “ACACTTTCATGGACCGGTTTTCCCGGTAATCCGTATTTGCA (site ACACTTTCTTG)”, the “recombinant UMI read abundance (log10)” value worked out at 2.82.

In the case of “ACACTTTCATGGACCGGTTTTCCCGGTAATCCGTATTTGCA (site ACAGTATCTTG)”, the “recombinant UMI read abundance (log10)” value amounted to 1.19.

With “ACAGAATCATGGACCGGTTTTCCCGGTAATCCGTATTTGCA (site ACAGAATCTTG)”, the “recombinant UMI read abundance (log10)” value is 2.9.

For “ACAGAATCATGGACCGGTTTTCCCGGTAATCCGTATTTGCA (site ACAGCATCTTG)”, the “recombinant UMI read abundance (log10)” value came out at 2.64.

“ACAGAATCATGGACCGGTTTTCCCGGTAATCCGTATTTGCA (site ACAGGATCTTG)”: the “recombinant UMI read abundance (log10)” value is 2.45.

Turning to “ACAGAATCATGGACCGGTTTTCCCGGTAATCCGTATTTGCA (site ACAGTATCTTG)”, the “recombinant UMI read abundance (log10)” value was 1.8.

With “ACAGACTCATGGACCGGTTTTCCCGGTAATCCGTATTTGCA (site ACAGACTCTTG)”, the “recombinant UMI read abundance (log10)” value stood at 2.44.

Regarding “ACAGACTCATGGACCGGTTTTCCCGGTAATCCGTATTTGCA (site ACAGTATCTTG)”, the “recombinant UMI read abundance (log10)” value is 0.

“ACAGAGGCATGGACCGGTTTTCCCGGTAATCCGTATTTGTG (site ACAGAGGCTCA)”: the “recombinant UMI read abundance (log10)” value was found to be 1.14.

For “ACAGGATCATGGACCGGTTTTCCCGGTAATCCGTATTTGCA (site ACAGAATCTTG)”, the “recombinant UMI read abundance (log10)” value amounted to 2.47.

Regarding “ACAGGATCATGGACCGGTTTTCCCGGTAATCCGTATTTGCA (site ACAGCATCTTG)”, the “recombinant UMI read abundance (log10)” value was 2.01.

Consider “ACAGGATCATGGACCGGTTTTCCCGGTAATCCGTATTTGCA (site ACAGGATCTTG)”, for which the “recombinant UMI read abundance (log10)” value was 1.77.

On to “ACAGGATCATGGACCGGTTTTCCCGGTAATCCGTATTTGCA (site ACAGTATCTTG)”, for which the “recombinant UMI read abundance (log10)” value was found to be 2.38.

Regarding “ACAGTAACATGGACCGGTTTTCCCGGTAATCCGTATTTGCT (site ACAGTAACTAG)”, the “recombinant UMI read abundance (log10)” value worked out at 2.7.

Consider “ACAGTAACATGGACCGGTTTTCCCGGTAATCCGTATTTGCT (site ACAGTATCTTG)”, for which the “recombinant UMI read abundance (log10)” value came out at 0.994.

For the sequence “ACAGTACCATGGACCGGTTTTCCCGGTAATCCGTATTTGCA (site ACAGTAACTTG)”, the “recombinant UMI read abundance (log10)” value was 0.

“ACAGTACCATGGACCGGTTTTCCCGGTAATCCGTATTTGCA (site ACAGTACCTTG)”: the “recombinant UMI read abundance (log10)” value came out at 0.00459.

“ACAGTACCATGGACCGGTTTTCCCGGTAATCCGTATTTGCA (site ACAGTAGCTTG)”: the “recombinant UMI read abundance (log10)” value is 0.138.

As for “ACAGTACCATGGACCGGTTTTCCCGGTAATCCGTATTTGCA (site ACAGTATCTTG)”, the “recombinant UMI read abundance (log10)” value amounted to 1.71.

For “ACAGTAGCATGGACCGGTTTTCCCGGTAATCCGTATTTGCG (site ACAGTAGCTCG)”, the “recombinant UMI read abundance (log10)” value came to 2.42.

“ACAGTAGCATGGACCGGTTTTCCCGGTAATCCGTATTTGCG (site ACAGTATCTTG)”: the “recombinant UMI read abundance (log10)” value worked out at 0.736.

In the case of “ACAGTATCATGGACCGGTTTTCCCGGTAATCCGTATTTGAA (site ACAGTATCTTA)”, the “recombinant UMI read abundance (log10)” value is 2.34.

As to “ACAGTATCATGGACCGGTTTTCCCGGTAATCCGTATTTGAA (site ACAGTATCTTC)”, the “recombinant UMI read abundance (log10)” value was found to be 1.73.

Regarding “ACAGTATCATGGACCGGTTTTCCCGGTAATCCGTATTTGAA (site ACAGTATCTTG)”, the “recombinant UMI read abundance (log10)” value amounted to 0.829.

Take “ACAGTATCATGGACCGGTTTTCCCGGTAATCCGTATTTGAA (site ACAGTATCTTT)”: the “recombinant UMI read abundance (log10)” value amounted to 3.04.

With “ACAGTATCATGGACCGGTTTTCCCGGTAATCCGTATTTGAC (site ACAGTATCTGT)”, the “recombinant UMI read abundance (log10)” value turned out to be 3.52.

For “ACAGTATCATGGACCGGTTTTCCCGGTAATCCGTATTTGAC (site ACAGTATCTTG)”, the “recombinant UMI read abundance (log10)” value stood at 1.15.

Take “ACAGTATCATGGACCGGTTTTCCCGGTAATCCGTATTTGAC (site CTAGTATCTGT)”: the “recombinant UMI read abundance (log10)” value was 1.64.

Regarding “ACAGTATCATGGACCGGTTTTCCCGGTAATCCGTATTTGCC (site ACAGTATCTAG)”, the “recombinant UMI read abundance (log10)” value was 1.42.

On to “ACAGTATCATGGACCGGTTTTCCCGGTAATCCGTATTTGCC (site ACAGTATCTCG)”, for which the “recombinant UMI read abundance (log10)” value is 1.77.

For “ACAGTATCATGGACCGGTTTTCCCGGTAATCCGTATTTGCC (site ACAGTATCTGG)”, the “recombinant UMI read abundance (log10)” value was found to be 2.92.

Take “ACAGTATCATGGACCGGTTTTCCCGGTAATCCGTATTTGCC (site ACAGTATCTTG)”: the “recombinant UMI read abundance (log10)” value was 1.9.

Turning to “ACAGTATCATGGACCGGTTTTCCCGGTAATCCGTATTTGTA (site ACAGTATCTTA)”, the “recombinant UMI read abundance (log10)” value was 3.08.

With “ACAGTATCATGGACCGGTTTTCCCGGTAATCCGTATTTGTA (site ACAGTATCTTC)”, the “recombinant UMI read abundance (log10)” value was determined as 2.02.

Regarding “ACAGTATCATGGACCGGTTTTCCCGGTAATCCGTATTTGTA (site ACAGTATCTTG)”, the “recombinant UMI read abundance (log10)” value was determined as 2.51.

“ACAGTATCATGGACCGGTTTTCCCGGTAATCCGTATTTGTA (site ACAGTATCTTT)”: the “recombinant UMI read abundance (log10)” value came to 2.44.

In the case of “ACAGTGTCATGGACCGGTTTTCCCGGTAATCCGTATTTGAA (site ACAGTATCTTG)”, the “recombinant UMI read abundance (log10)” value came out at 1.04.

“ACAGTGTCATGGACCGGTTTTCCCGGTAATCCGTATTTGAA (site ACAGTGTCTTT)”: the “recombinant UMI read abundance (log10)” value was determined as 3.19.

For the sequence “ACAGTTCCATGGACCGGTTTTCCCGGTAATCCGTATTTGCC (site ACAGTTCCTGG)”, the “recombinant UMI read abundance (log10)” value was determined as 0.

Turning to “ACATCAACATGGACCGGTTTTCCCGGTAATCCGTATTTGTC (site ACATCAACTGA)”, the “recombinant UMI read abundance (log10)” value came to 1.34.

As for “ACATCAACATGGACCGGTTTTCCCGGTAATCCGTATTTGTG (site ACATCAACTCA)”, the “recombinant UMI read abundance (log10)” value came to 0.878.

“ACATCAACATGGACCGGTTTTCCCGGTAATCCGTATTTGTG (site ACATCCACTCA)”: the “recombinant UMI read abundance (log10)” value was determined as 0.0219.

“ACATCAACATGGACCGGTTTTCCCGGTAATCCGTATTTGTG (site ACATCGACTCA)”: the “recombinant UMI read abundance (log10)” value stood at 0.0265.

In the case of “ACATCAACATGGACCGGTTTTCCCGGTAATCCGTATTTGTG (site ACATCTACTCA)”, the “recombinant UMI read abundance (log10)” value is 0.206.

As to “ACATCCTCATGGACCGGTTTTCCCGGTAATCCGTATTTGTC (site ACATCCTCTGA)”, the “recombinant UMI read abundance (log10)” value worked out at 2.8.

Turning to “ACATGTACATGGACCGGTTTTCCCGGTAATCCGTATTTGAC (site ACATGTACTGT)”, the “recombinant UMI read abundance (log10)” value amounted to 1.76.

For the sequence “ACATTATCATGGACCGGTTTTCCCGGTAATCCGTATTTGCA (site ACAATATCTTG)”, the “recombinant UMI read abundance (log10)” value stood at 1.92.

As to “ACATTATCATGGACCGGTTTTCCCGGTAATCCGTATTTGCA (site ACACTATCTTG)”, the “recombinant UMI read abundance (log10)” value was 2.24.

“ACATTATCATGGACCGGTTTTCCCGGTAATCCGTATTTGCA (site ACAGTATCTTG)”: the “recombinant UMI read abundance (log10)” value stood at 1.69.

For “ACATTATCATGGACCGGTTTTCCCGGTAATCCGTATTTGCA (site ACATTATCTTG)”, the “recombinant UMI read abundance (log10)” value was 2.01.

As for “ACCAACCCATGGACCGGTTTTCCCGGTAATCCGTATTTGCG (site ACCAACCCTCG)”, the “recombinant UMI read abundance (log10)” value worked out at 0.

Consider “ACCAAGACATGGACCGGTTTTCCCGGTAATCCGTATTTGGG (site ACCAAGACTCC)”, for which the “recombinant UMI read abundance (log10)” value worked out at 0.0181.

Turning to “ACCAAGACATGGACCGGTTTTCCCGGTAATCCGTATTTGGG (site ACCCAGACTCC)”, the “recombinant UMI read abundance (log10)” value was found to be 0.0318.

In the case of “ACCAAGACATGGACCGGTTTTCCCGGTAATCCGTATTTGGG (site ACCGAGACTCC)”, the “recombinant UMI read abundance (log10)” value was 0.0218.

In the case of “ACCAAGACATGGACCGGTTTTCCCGGTAATCCGTATTTGGG (site ACCTAGACTCC)”, the “recombinant UMI read abundance (log10)” value turned out to be 0.0189.

Consider “ACCAGAACATGGACCGGTTTTCCCGGTAATCCGTATTTGAA (site ACCAGAACTTT)”, for which the “recombinant UMI read abundance (log10)” value stood at 1.72.

For the sequence “ACCAGTCCATGGACCGGTTTTCCCGGTAATCCGTATTTGCG (site GATGCATCTTA)”, the “recombinant UMI read abundance (log10)” value was 0.

As for “ACCAGTGCATGGACCGGTTTTCCCGGTAATCCGTATTTGGT (site ACAAGTGCTAC)”, the “recombinant UMI read abundance (log10)” value amounted to 0.0927.

For “ACCAGTGCATGGACCGGTTTTCCCGGTAATCCGTATTTGGT (site ACCAGTGCTAC)”, the “recombinant UMI read abundance (log10)” value was 0.472.

Regarding “ACCAGTGCATGGACCGGTTTTCCCGGTAATCCGTATTTGGT (site ACGAGTGCTAC)”, the “recombinant UMI read abundance (log10)” value was 0.0125.

Turning to “ACCAGTGCATGGACCGGTTTTCCCGGTAATCCGTATTTGGT (site ACTAGTGCTAC)”, the “recombinant UMI read abundance (log10)” value was 0.19.

Regarding “ACCCAAGCATGGACCGGTTTTCCCGGTAATCCGTATTTGAG (site AACCAAGCTCT)”, the “recombinant UMI read abundance (log10)” value was determined as 0.712.

Regarding “ACCCAAGCATGGACCGGTTTTCCCGGTAATCCGTATTTGAG (site ACCCAAGCTCT)”, the “recombinant UMI read abundance (log10)” value turned out to be 1.97.
